Measured values: patent publication US20240325312A1, “Composition comprising cannabidiol and hydroxychloroquine in a fixed dose combination capsule” (priority 2021, published 2024)

Legend:
[1] = system: human peripheral blood mononuclear cells (PBMCs); experiment: LPS-stimulated cytokine release from human PBMCs, checkerboard, Luminex; assay type: cell-based
Protocol: The anti-inflammatory activity the combination of CBD and hydroxychloroquine was assessed by determining cytokine release from human peripheral blood mononuclear cells (PBMCs) stimulated with bacterial lipopolysaccharide (LPS) using a Luminex based assay. A 96-well microtitre plate-based checkerboard assay with seven concentrations (including the no drug control) of CBD and hydroxychloroquine were assessed in combination was used to determine the drug-drug interaction. Briefly, frozen PMBCs from two independent donors were thawed, diluted in culture medium, seeded into 96-well microtitre plates and incubated at 37° C., 5% CO2 for 1 hour prior to the addition of test compounds. After the addition of the test compounds the cells were returned to the incubator for 1 hour, after which LPS was added to the wells. Plates were incubated at 37° C., 5% CO2 for 24 hours. After 24 hours, cell culture supernatants were removed and analysed for cytokine levels using Luminex methodology according to manufacturers' instructions. All values had the vehicle background subtracted prior to further analysis. Three plates were set up in parallel using the PBMCs from the same donor. Inhibition of cytokine release was determined relative to the no treatment control (i.e., that was stimulated with LPS) and averaged across the three replicates. A cytotoxicity assay using AlmarBlue with the identical plate set up was performed in parallel.
(§1) Drug synergy was determined using the Bliss Independence method where the predicted effect of the drug combination is calculated using the equation: […]

[2] = system: Lewis rats; experiment: Collagen-induced arthritis; assay type: in vivo; parameters: key to Relative reduction in pannus score / Relative reduction in total histology score / Reduction in pannus score / Reduction in total histology score / Reduction in IL-1B / Reduction in IL-6 / Reduction in clinical score: fractional reduction vs vehicle control, sham baseline subtracted
Protocol: Female Lewis rats were challenged with porcine type-II collagen with Freund's adjuvant on Day 1 (0.2 mg/0.2 mL/rat) by subcutaneous injection at the base of the tail to induce arthritis. A booster injection at 0.1 mg/0.1 mL/rat) was administered on Day 7. On Day 16, rats were allocated into groups of six based on hind paw volume, with animals allocated into groups to provide a similar distribution of hind paw volumes.
Vehicle and active agents (i.e., CBD and hydroxychloroquine) alone or in combination were administered intraperitoneally (IP) once a day starting from Day 17 to Day 30, i.e., for a total of 14 consecutive days.
Disease was assessed by measuring hind paw volume with plethysmometer and using a qualitative severity score system as outlined in Table 16 on Day 1, 7, 10, 14, 16, 18, 20, 22, 24, 26, 28 and 30.
Post-termination on Day 30, blood was collected from all rats and analysed for levels of the inflammatory cytokines […], IL-6 and TNF-α by ELISA. Both hind paws were harvested, weighed and formalin-fixed for histopathology. Tissue was assessed to evaluate cartilage and bone destruction by pannus formation and mononuclear cell infiltration in synovial tissues according to the scoring matrices set out in Tables 17 and 18. A total histology score, being the sum of the pannus formation and mononuclear cell infiltration score, was also calculated.
For synergy analysis, data were baseline subtracted using sham treated […] (i.e., no collagen injection), before normalizing the values relative to vehicle control. Synergy was calculated using the statistical methods described elsewhere herein.

[3] = system: Lewis rats; experiment: Collagen-induced arthritis; assay type: in vivo; details: Day 30
[4] = system: BALB/c mice; experiment: TNBS-induced colitis; assay type: in vivo; details: H&E
Description: Male BALB/c were used as an in vivo model of colitis, induced by intracolonic administration of 2,4,6-trinitrobenzene sulfonic acid (TNBS) in 50% ethanol, as previously described by Antoniou et al. (2016, Annals of Medicine and Surgery, 11: 9-15). Briefly, the ethanol disrupts the intestinal barrier, permitting TNBS to interact with colon proteins. Interaction of TNBS with high-molecular weight proteins renders them immunogenic, leading to Th1 mediated inflammation, which is causative of symptoms include inconsistent stool formation and blood in the faeces. […]
Other endpoint measures of stool consistency score (i.e., 0—normal stools, 1, soft but still formed stools, 2—very soft stools, 3—diarrhoea), faecal occult blood score (i.e., 0—negative hemoccult, 1—positive hemoccult, 2—blood traces in stool visible, 3—rectal bleeding), colon weight, colon macroscopic damage score (a composite of adhesions, strictures, ulcers/inflammations and wall thickness) and myeloperoxidase levels in the colon tissue were also assessed. The data from each of these endpoints was baseline subtracted using the equivalent measures from sham treated mice (i.e., no TNBS) and reduction in any measure calculated as a relative reduction. Synergy was calculated using the statistical methods described elsewhere herein.

[5] = system: C57BL/6 mice; experiment: Lipopolysaccharide (LPS)-induced sepsis, serum cytokines; assay type: in vivo
Protocol: Male C57BL/6 mice weighing 10-20 g were used. Vehicle and active agents (i.e., CBD and hydroxychloroquine) alone or in combination were administered intraperitoneally (IP) or orally at 1 hour before LPS (100 μg/100 μL/mouse) injected intravenously (IV). At 2 hours after LPS injection, blood was collected from all mice by cardiac puncture, sera processed and assayed for biomarkers using either the Th17-plex for IL-1β, IL-2, IL-10, IL-12 (p70), IFN-γ and TNF-α by Luminex, plus IL-6 and D-dimer by ELISA, or the 23-plex for IL-1α, IL-1β, IL-2, IL-3, IL-4, IL-5, IL-6, IL-9, IL-10, IL-12(p40), IL-12(p70), IL-13, IL-17A, Eotaxin, G-CSF, GM-CSF, IFN-γ, KC, MCP-1(MCAF), MIP-1α, […], RANTES, and TNF-α by Luminex, plus IL-6 by ELISA. ANOVA followed by Dunnett's test was applied for comparison between vehicle and treatment groups. p<0.05 is considered significant.
For synergy analysis, data were baseline subtracted using the cytokine levels of sham treated mice (i.e., no LPS injection), before normalizing the values for each cytokine relative to maximum values across the groups. The normalized values were used to calculate the relative inhibition where a value of 1 represents complete inhibition and a value of 0 represents no inhibition. Synergy was calculated using the statistical methods described elsewhere herein.
as §1

CCN(CCO)CCCC(C)Nc1ccnc2cc(Cl)ccc12 (stereo not drawn) [HCQ, 2-[[4-[(7-chloro-4-quinolinyl)amino]pentyl]-thylamino]ethanol]
FIE, IL-1α release ([1]; Donor 1, HCQ 0.63 μg/mL): 0.03
FIE, IL-1β release ([1]; Donor 1, HCQ 0.63 μg/mL): 0.08
FIE, IL-6 release ([1]; Donor 1, HCQ 0.63 μg/mL): 0.12
FIE, TNF-α release ([1]; Donor 1, HCQ 0.63 μg/mL): 0.00
FIE, IL-1α release ([1]; Donor 1, HCQ 1.25 μg/mL): 0.01
FIE, IL-1β release ([1]; Donor 1, HCQ 1.25 μg/mL): 0.07
FIE, IL-6 release ([1]; Donor 1, HCQ 1.25 μg/mL): 0.00
FIE, TNF-α release ([1]; Donor 1, HCQ 1.25 μg/mL): 0.08
FIE, IL-1α release ([1]; Donor 1, HCQ 2.50 μg/mL): 0.12
FIE, IL-1β release ([1]; Donor 1, HCQ 2.50 μg/mL): 0.08
FIE, IL-6 release ([1]; Donor 1, HCQ 2.50 μg/mL): 0.10
FIE, MIP-1α release ([1]; Donor 1, HCQ 2.50 μg/mL): 0.00
FIE, TNF-α release ([1]; Donor 1, HCQ 2.50 μg/mL): 0.05
FIE, IL-1α release ([1]; Donor 1, HCQ 5.00 μg/mL): 0.24
FIE, IL-1β release ([1]; Donor 1, HCQ 5.00 μg/mL): 0.17
FIE, IL-6 release ([1]; Donor 1, HCQ 5.00 μg/mL): 0.08
FIE, TNF-α release ([1]; Donor 1, HCQ 5.00 μg/mL): 0.02
FIE, IL-1α release ([1]; Donor 1, HCQ 10.00 μg/mL): 0.50
FIE, IL-1β release ([1]; Donor 1, HCQ 10.00 μg/mL): 0.68
FIE, IL-6 release ([1]; Donor 1, HCQ 10.00 μg/mL): 0.00
FIE, TNF-α release ([1]; Donor 1, HCQ 10.00 μg/mL): 0.04
FIE, IL-1α release ([1]; Donor 1, HCQ 20.00 μg/mL): 0.54
FIE, IL-1β release ([1]; Donor 1, HCQ 20.00 μg/mL): 0.81
FIE, IL-6 release ([1]; Donor 1, HCQ 20.00 μg/mL): 0.12
FIE, MIP-1α release ([1]; Donor 1, HCQ 20.00 μg/mL): 0.00
FIE, TNF-α release ([1]; Donor 1, HCQ 20.00 μg/mL): 0.30
FIE, IL-1α release ([1]; Donor 2, HCQ 0.63 μg/mL): 0.07
FIE, IL-1β release ([1]; Donor 2, HCQ 0.63 μg/mL): 0.06
FIE, IL-1α release ([1]; Donor 2, HCQ 1.25 μg/mL): 0.11
FIE, IL-1α release ([1]; Donor 2, HCQ 2.50 μg/mL): 0.19
FIE, IL-1β release ([1]; Donor 2, HCQ 2.50 μg/mL): 0.07
FIE, IL-1α release ([1]; Donor 2, HCQ 5.00 μg/mL): 0.49
FIE, TNF-α release ([1]; Donor 2, HCQ 5.00 μg/mL): 0.02
FIE, IL-1α release ([1]; Donor 2, HCQ 10.00 μg/mL): 0.68
FIE, IL-6 release ([1]; Donor 2, HCQ 10.00 μg/mL): 0.11
FIE, MIP-1α release ([1]; Donor 2, HCQ 10.00 μg/mL): 0.00
FIE, TNF-α release ([1]; Donor 2, HCQ 10.00 μg/mL): 0.18
FIE, IL-1α release ([1]; Donor 2, HCQ 20.00 μg/mL): 0.63
FIE, IL-6 release ([1]; Donor 2, HCQ 20.00 μg/mL): 0.47
FIE, MIP-1α release ([1]; Donor 2, HCQ 20.00 μg/mL): 0.00
Reduction in clinical score ([2]; Day 24, HCQ 25 mg/kg): 0.21
Reduction in paw volume ([2]; Day 24, HCQ 25 mg/kg): 0.10
Relative reduction in pannus score ([2]; Day 30, HCQ 2.5 mg/kg): 0.07
Relative reduction in serum IL-6 level ([2]; Day 30, HCQ 2.5 mg/kg): 0.51
Relative reduction in total histology score ([2]; Day 30, HCQ 2.5 mg/kg): 0.15
Reduction in clinical score ([2]; Day 30, HCQ 25 mg/kg): 0.26
Reduction in paw volume ([2]; Day 30, HCQ 25 mg/kg): 0.20
Reduction in mononuclear cell infiltration ([2]; HCQ 25 mg/kg): 0.24
Reduction in pannus score ([2]; HCQ 25 mg/kg): 0.28
Reduction in total histology score ([2]; HCQ 25 mg/kg): 0.26
Reduction in IL-1B ([2]; serum, HCQ 25 mg/kg): 0.25
Reduction in IL-6 ([2]; serum, HCQ 25 mg/kg): 0.36
Relative reduction in serum IL-1β level ([3]; HCQ 2.5 mg/kg): 0.37
Colon tissue histology finding (FIG. 4) ([4]; hydroxychloroquine (2.5 mg/kg)): regions of mild abnormality, cyctic dilation and aberrant crypts

C=C(C)[C@@H]1CCC(C)=C[C@H]1c1c(O)cc(CCCCC)cc1O [CBD, cannabidiol]
FIE, IL-1α release ([1]; Donor 1, CBD 5.00 μg/mL): 0.40
FIE, IL-1β release ([1]; Donor 1, CBD 5.00 μg/mL): 0.38
FIE, IL-6 release ([1]; Donor 1, CBD 5.00 μg/mL): 0.08
FIE, MIP-1α release ([1]; Donor 1, CBD 5.00 μg/mL): 0.12
FIE, TNF-α release ([1]; Donor 1, CBD 5.00 μg/mL): 0.05
FIE, IL-1α release ([1]; Donor 2, CBD 5.00 μg/mL): 0.28
FIE, IL-1β release ([1]; Donor 2, CBD 5.00 μg/mL): 0.13
FIE, IL-6 release ([1]; Donor 2, CBD 5.00 μg/mL): 0.09
FIE, MIP-1α release ([1]; Donor 2, CBD 5.00 μg/mL): 0.00
FIE, TNF-α release ([1]; Donor 2, CBD 5.00 μg/mL): 0.07
Relative reduction in pannus score ([2]; Day 30, CBD 1 mg/kg): 0.07
Relative reduction in serum IL-6 level ([2]; Day 30, CBD 1 mg/kg): 0.50
Relative reduction in total histology score ([2]; Day 30, CBD 1 mg/kg): 0.11
Relative reduction in serum IL-1β level ([3]; CBD 1 mg/kg): 0.31
Relative inhibition of IFN-γ release ([5]; CBD 10 mg/kg): 0.00
Relative inhibition of IL-1β release ([5]; CBD 10 mg/kg): 0.34
Relative inhibition of IL-6 release ([5]; CBD 10 mg/kg): 0.14
Relative inhibition of IL-12(p70) release ([5]; CBD 10 mg/kg): 0.00
Relative inhibition of TNF-α release ([5]; CBD 10 mg/kg): 0.00
Relative inhibition of IL-6 release ([5]; CBD 25 mg/kg): 0.03
Colon tissue histology finding (FIG. 4) ([4]; CBD (1 mg/kg)): regions of inflammatory cell infiltration in submucosal edema
